In the experiment the target is T1, biotinylated Avi-POLΘ[2-894] (Homo sapiens, UniProt O75417).
T1 construct: 1 nM biotinylated Avi-POLΘ[2-894]
T1 sequence (O75417 2-894 limits assumed): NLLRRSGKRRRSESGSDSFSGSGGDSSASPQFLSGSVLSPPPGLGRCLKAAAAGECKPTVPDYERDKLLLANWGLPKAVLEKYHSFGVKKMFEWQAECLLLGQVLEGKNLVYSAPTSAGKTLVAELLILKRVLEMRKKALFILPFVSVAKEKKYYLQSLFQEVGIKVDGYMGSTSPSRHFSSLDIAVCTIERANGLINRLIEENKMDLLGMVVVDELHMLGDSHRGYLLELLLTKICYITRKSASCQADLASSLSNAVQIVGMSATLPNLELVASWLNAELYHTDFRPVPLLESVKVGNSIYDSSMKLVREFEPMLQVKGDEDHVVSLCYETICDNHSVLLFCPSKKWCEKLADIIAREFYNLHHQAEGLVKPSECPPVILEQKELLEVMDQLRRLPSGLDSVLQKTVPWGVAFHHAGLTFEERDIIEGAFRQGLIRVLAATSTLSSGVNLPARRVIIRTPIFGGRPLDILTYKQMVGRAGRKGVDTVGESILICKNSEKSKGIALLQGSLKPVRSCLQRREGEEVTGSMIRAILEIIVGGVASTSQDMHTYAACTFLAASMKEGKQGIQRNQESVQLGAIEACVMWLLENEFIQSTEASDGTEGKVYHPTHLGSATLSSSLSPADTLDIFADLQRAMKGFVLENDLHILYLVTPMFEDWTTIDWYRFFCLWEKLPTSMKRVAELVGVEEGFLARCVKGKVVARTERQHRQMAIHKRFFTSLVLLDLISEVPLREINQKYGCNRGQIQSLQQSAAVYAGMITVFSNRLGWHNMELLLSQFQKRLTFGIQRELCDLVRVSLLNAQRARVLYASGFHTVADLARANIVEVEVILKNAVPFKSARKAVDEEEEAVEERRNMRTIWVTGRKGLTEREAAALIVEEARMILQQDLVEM
Briefly: ATPase assay (ADP-Glo): POLΘ-mediated ATP hydrolysis. Conditions: read-out: Biochemical ATPase ADPGlo IC50.
As to `COc1cnc(Cl)cc1-c1cc(C)ncc1C(=O)Nc1nc2ncc(N3CCOC[C@H]3C(F)(F)F)nc2s1` [Example 416, (S)-2′-chloro-5′-methoxy-6-methyl-N-(6-(3-(trifluoromethyl)morpholino)thiazolo[4,5-b]pyrazin-2-yl)-[4,4′-bipyridine]-3-carboxamide], the IC50 was in the range of 15 to 50 nM.
As for `COc1cnc(Cl)cc1-c1cc(C)ncc1C(=O)Nc1nc2ncc(N3C[C@@H](C)OC[C@@H]3C)nc2s1` [Example 419, 2′-chloro-N-(6-((2R,5S)-2,5-dimethylmorpholino)thiazolo [4,5-b]pyrazin-2-yl)-5′-methoxy-6-methyl-[4,4′-bipyridine]-3-carboxamide], the half-inhibitory concentration (IC50) lay in the range of 1 to 15 nM.
Regarding `COc1cnc(Cl)cc1-c1cc(C)ncc1C(=O)Nc1nc2ncc(N3[C@H](C)COC[C@H]3C)nc2s1` [Example 423, 2′-chloro-N-(6-((3R,5R)-3,5-dimethylmorpholino)thiazolo [4,5-b]pyrazin-2-yl)-5′-methoxy-6-methyl-[4,4′-bipyridine]-3-carboxamide], the concentration for half-maximal inhibition (IC50) fell in the range of 1 to 15 nM.
With `COc1cnc(Cl)cc1-c1cc(C)ncc1C(=O)Nc1nc2ncc(N3CCOC(C)C3C)nc2s1` (centres unmarked) [Example 425, 2′-chloro-N-(6-(2,3-dimethylmorpholino)thiazolo [4,5-b]pyrazin-2-yl)-5′-methoxy-6-methyl-[4,4′-bipyridine]-3-carboxamide], the IC50 lay within 1 to 15 nM.
Regarding `COc1cnc(Cl)cc1-c1cc(C)ncc1C(=O)Nc1nc2ncc(N3CCOCC3C(F)F)nc2s1` (centres unmarked) [Example 426, 2′-chloro-N-(6-(3-(difluoromethyl)morpholino)thiazolo[4,5-b]pyrazin-2-yl)-5′-methoxy-6-methyl-[4,4′-bipyridine]-3-carboxamide], the IC50 lay in the range of 15 to 50 nM.
As for `COc1cnc(Cl)cc1-c1cc(C)ncc1C(=O)Nc1nc2ncc(N3C[C@@H](C)O[C@@H](C)C3)nc2s1` [Example 437, 2′-chloro-N-(6-((2S,6R)-2,6-dimethylmorpholino)thiazolo [4,5-b]pyrazin-2-yl)-5′-methoxy-6-methyl-[4,4′-bipyridine]-3-carboxamide], the IC50 is 1 to 15 nM.
Consider `COc1cnc(Cl)cc1-c1cc(C)ncc1C(=O)Nc1nc2ncc([C@H]3CC[C@@H](C#N)CC3)nc2s1` [Example 451, 2′-chloro-N-(6-((1s,4s)-4-cyanocyclohexyl)thiazolo[4,5-b]pyrazin-2-yl)-5′-methoxy-6-methyl-[4,4′-bipyridine]-3-carboxamide], for which the IC50 was in the range of 1 to 15 nM.
Take `COc1cnc(Cl)cc1-c1cc(C)ncc1C(=O)Nc1nc2ncc(N3CC[C@H](OC)[C@H](F)C3)nc2s1` [Example 453, 2′-chloro-N-(6-((3R,4S)-3-fluoro-4-methoxypiperidin-1-yl)thiazolo[4,5-b]pyrazin-2-yl)-5′-methoxy-6-methyl-[4,4′-bipyridine]-3-carboxamide]: the half-maximal inhibitory concentration (IC50) is 1 to 15 nM.
On to `COc1cnc(Cl)cc1-c1cc(C)ncc1C(=O)Nc1nc2ncc(N3CC[C@@H](OC)[C@H](F)C3)nc2s1` [Example 456, 2′-chloro-N-(6-((3R,4R)-3-fluoro-4-methoxypiperidin-1-yl)thiazolo[4,5-b]pyrazin-2-yl)-5′-methoxy-6-methyl-[4,4′-bipyridine]-3-carboxamide], for which the IC50 fell in the range of 1 to 15 nM.
Regarding `COc1cnc(Cl)cc1-c1cc(C)ncc1C(=O)Nc1nc2ncc(N3CCC(N(C)C)CC3)nc2s1` [Example 469, 2′-chloro-N-(6-(4-(dimethylamino)piperidin-1-yl)thiazolo[4,5-b]pyrazin-2-yl)-5′-methoxy-6-methyl-[4,4′-bipyridine]-3-carboxamide], the IC50 lay in the range of 1 to 15 nM.
With `CNC1CCN(c2cnc3nc(NC(=O)c4cnc(C)cc4-c4cc(Cl)ncc4OC)sc3n2)CC1` [Example 477, 2′-chloro-5′-methoxy-6-methyl-N-(6-(4-(methylamino)piperidin-1-yl)thiazolo[4,5-b]pyrazin-2-yl)-[4,4′-bipyridine]-3-carboxamide], the IC50 fell in the range of 15 to 50 nM.

Usually IC50 stands for the midpoint of a concentration-inhibition curve.

Values taken from patent US20260015360A1 (MOMA Therapeutics, Inc., priority 2023, published 2026).
